pIC50: −log10 of the molar value.
Target: T1, Nav1.7 (or SCN9A) channel; HEK cells stably transfected with hSCN9A (Homo sapiens, UniProt Q15858)
T1 construct: expressed in transfected cells
Assay: Nav1.7 block, PatchXpress 7000 automated whole-cell voltage clamp, estimated IC50 (EIC50)
Assay type: cell-based
Conditions: PatchXpress platform; hSCN9A HEK cells held at V1/2 of inactivation; estimated IC50

T1 sequence (Q15858 whole entry): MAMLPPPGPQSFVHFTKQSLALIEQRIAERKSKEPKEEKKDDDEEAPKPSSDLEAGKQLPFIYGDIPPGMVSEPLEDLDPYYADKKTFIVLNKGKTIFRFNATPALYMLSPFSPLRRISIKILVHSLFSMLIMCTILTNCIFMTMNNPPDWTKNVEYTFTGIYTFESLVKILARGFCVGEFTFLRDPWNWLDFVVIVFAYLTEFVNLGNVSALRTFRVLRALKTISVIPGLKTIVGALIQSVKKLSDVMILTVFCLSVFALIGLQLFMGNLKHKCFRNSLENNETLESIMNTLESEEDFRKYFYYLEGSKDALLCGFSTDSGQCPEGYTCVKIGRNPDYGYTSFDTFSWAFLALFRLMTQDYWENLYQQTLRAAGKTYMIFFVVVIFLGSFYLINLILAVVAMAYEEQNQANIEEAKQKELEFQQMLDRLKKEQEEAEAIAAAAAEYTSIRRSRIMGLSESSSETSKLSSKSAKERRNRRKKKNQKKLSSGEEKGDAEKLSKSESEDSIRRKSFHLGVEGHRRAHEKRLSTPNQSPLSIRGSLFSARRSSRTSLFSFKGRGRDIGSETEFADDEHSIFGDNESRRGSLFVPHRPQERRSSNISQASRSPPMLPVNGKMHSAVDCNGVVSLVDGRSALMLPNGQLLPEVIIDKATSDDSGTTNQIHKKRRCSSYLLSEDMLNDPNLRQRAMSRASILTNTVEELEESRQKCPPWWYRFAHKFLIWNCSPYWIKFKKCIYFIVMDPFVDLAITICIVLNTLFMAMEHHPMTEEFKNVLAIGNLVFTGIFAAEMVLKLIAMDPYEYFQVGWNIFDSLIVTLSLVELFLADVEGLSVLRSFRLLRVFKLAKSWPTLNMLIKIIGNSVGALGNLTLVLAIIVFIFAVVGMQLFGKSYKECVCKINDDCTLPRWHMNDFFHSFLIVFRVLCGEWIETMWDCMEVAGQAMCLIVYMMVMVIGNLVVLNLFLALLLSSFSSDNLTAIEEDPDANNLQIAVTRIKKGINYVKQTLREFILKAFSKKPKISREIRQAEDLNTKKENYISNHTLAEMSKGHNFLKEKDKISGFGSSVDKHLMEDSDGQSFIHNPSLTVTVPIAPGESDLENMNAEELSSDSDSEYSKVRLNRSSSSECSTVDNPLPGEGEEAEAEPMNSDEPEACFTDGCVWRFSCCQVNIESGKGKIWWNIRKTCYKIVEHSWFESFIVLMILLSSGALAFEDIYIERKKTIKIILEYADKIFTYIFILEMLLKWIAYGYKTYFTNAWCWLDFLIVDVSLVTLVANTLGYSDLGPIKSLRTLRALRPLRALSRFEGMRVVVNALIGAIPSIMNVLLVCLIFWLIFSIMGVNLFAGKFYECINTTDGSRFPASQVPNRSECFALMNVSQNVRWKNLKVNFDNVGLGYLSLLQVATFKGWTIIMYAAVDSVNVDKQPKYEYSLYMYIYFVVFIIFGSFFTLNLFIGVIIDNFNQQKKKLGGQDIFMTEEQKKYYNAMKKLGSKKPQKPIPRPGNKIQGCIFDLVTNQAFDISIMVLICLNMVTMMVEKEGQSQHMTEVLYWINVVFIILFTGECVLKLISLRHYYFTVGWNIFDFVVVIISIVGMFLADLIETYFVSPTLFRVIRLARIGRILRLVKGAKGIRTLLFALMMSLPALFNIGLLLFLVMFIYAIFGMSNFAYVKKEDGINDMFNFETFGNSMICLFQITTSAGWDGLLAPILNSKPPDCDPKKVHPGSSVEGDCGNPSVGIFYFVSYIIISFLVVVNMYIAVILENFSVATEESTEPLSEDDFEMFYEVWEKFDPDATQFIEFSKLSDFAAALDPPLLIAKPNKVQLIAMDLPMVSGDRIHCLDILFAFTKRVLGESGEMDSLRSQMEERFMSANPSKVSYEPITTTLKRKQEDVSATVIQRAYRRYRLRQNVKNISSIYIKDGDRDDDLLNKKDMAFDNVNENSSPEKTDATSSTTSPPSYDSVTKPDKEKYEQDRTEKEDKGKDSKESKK

Row | SMILES | pIC50 | IC50 [nM]
1 | Cc1ccc(-c2ncccc2Oc2ccc(S(=O)(=O)Nc3ncns3)cc2C#N)cc1 [Example 17, 3-cyano-4-{[2-(4-methylphenyl)pyridin-3-yl]oxy}-N-1,2,4-thiadiazol-5-ylbenzenesulfonamide] | 4.59 | 
2 | N#Cc1cc(S(=O)(=O)Nc2ncns2)ccc1Oc1nccnc1-c1ccccc1 [Example 20, 3-cyano-4-[(3-phenylpyrazin-2-yl)oxy]-N-1,2,4-thiadiazol-5-ylbenzenesulfonamide] |  | >10000
3 | N#Cc1cc(S(=O)(=O)Nc2ncns2)ccc1Oc1nnccc1-c1ccccc1 [Example 21, 3-cyano-4-[(4-phenylpyridazin-3-yl)oxy]-N-1,2,4-thiadiazol-5-ylbenzenesulfonamide] |  | >10000
4 | N#Cc1cc(S(=O)(=O)Nc2ncns2)ccc1Oc1ccccc1-c1ccccc1 [Example 24, 4-(biphenyl-2-yloxy)-3-cyano-N-(1,2,4-thiadiazol-5-yl)benzenesulfonamide] | 6.96 | 
5 | Cc1ccc(Oc2ccc(S(=O)(=O)Nc3ncns3)cc2C#N)c(-c2c(C)cnn2C)c1 [Example 27, 3-cyano-4-(2-(1,4-dimethyl-1H-pyrazol-5-yl)-4-methylphenoxy)-N-(1,2,4-thiadiazol-5-yl)benzenesulfonamide] | 6.11 | 
6 | Cc1ccc(Oc2ccc(S(=O)(=O)Nc3ncns3)cc2C#N)c(-c2nn(C)cc2C)c1 [Example 28, 3-cyano-4-(2-(1,4-dimethyl-1H-pyrazol-3-yl)-4-methylphenoxy)-N-(1,2,4-thiadiazol-5-yl)benzenesulfonamide] | 5.53 | 
7 | Cc1cccc(-c2cc(F)ccc2F)c1Oc1ccc(S(=O)(=O)Nc2ncns2)cc1C#N [Example 31, 3-cyano-4-[(2′,5′-difluoro-3-methylbiphenyl-2-yl)oxy]-N-1,2,4-thiadiazol-5-ylbenzenesulfonamide] | 4.79 | 
8 | N#Cc1cc(S(=O)(=O)Nc2ncns2)ccc1Oc1ccc(F)cc1-c1cc(F)ccc1F [Example 33, 3-cyano-N-1,2,4-thiadiazol-5-yl-4-[(2′,5,5′-trifluorobiphenyl-2-yl)oxy]benzenesulfonamide] | 6.42 | 
9 | Cc1cccc(-c2ccc(F)cc2F)c1Oc1ccc(S(=O)(=O)Nc2ncns2)cc1C#N [Example 35, 3-cyano-4-[(2′,4′-difluoro-3-methylbiphenyl-2-yl)oxy]-N-1,2,4-thiadiazol-5-ylbenzenesulfonamide] | 4.90 | 
10 | N#Cc1cc(S(=O)(=O)Nc2ncns2)ccc1Oc1ccccc1-c1cc(F)ccc1F [Example 36, 3-cyano-4-[(2′,5′-difluorobiphenyl-2-yl)oxy]-N-1,2,4-thiadiazol-5-ylbenzenesulfonamide] | 5.89 | 
11 | Cc1cccc(-c2ccc(OC(F)(F)F)cc2)c1Oc1ccc(S(=O)(=O)Nc2ncns2)cc1C#N [Example 40, 3-cyano-4-{[3-methyl-4′-(trifluoromethoxy)biphenyl-2-yl]oxy}-N-1,2,4-thiadiazol-5-ylbenzenesulfonamide] | 5.24 | 
12 | COc1ccc(-c2cccc(C)c2Oc2ccc(S(=O)(=O)Nc3ncns3)cc2C#N)cc1 [Example 42, 3-cyano-4-[(4′-methoxy-3-methylbiphenyl-2-yl)oxy]-N-1,2,4-thiadiazol-5-ylbenzenesulfonamide] | 5.76 | 
13 | Cc1cccc(-c2ccccc2F)c1Oc1ccc(S(=O)(=O)Nc2ncns2)cc1C#N [Example 43, 3-cyano-4-[(2′-fluoro-3-methylbiphenyl-2-yl)oxy]-N-1,2,4-thiadiazol-5-ylbenzenesulfonamide] | 4.66 | 

More lines, now with the values ahead:

Row | pIC50 | IC50 [nM] | SMILES
14 | 5.37 |  | CN(C)c1ncc(Oc2ccc(S(=O)(=O)Nc3ncns3)cc2C#N)c(-c2ccccc2F)n1 [Example 14, 3-cyano-4-{[2-(dimethylamino)-4-(2-fluorophenyl)pyrimidin-5-yl]oxy}-N-1,2,4-thiadiazol-5-ylbenzenesulfonamide]
15 |  | >10000 | N#Cc1cc(S(=O)(=O)Nc2ncns2)ccc1Oc1cnc(N)nc1-c1ccc(Cl)cc1 [Example 18, 4-{[2-amino-4-(4-chlorophenyl)pyrimidin-5-yl]oxy}-3-cyano-N-1,2,4-thiadiazol-5-ylbenzenesulfonamide]
16 | 6.14 |  | CCc1ccc(Oc2ccc(S(=O)(=O)Nc3ncns3)cc2C#N)c(-c2ccccc2)n1 [Example 19, 3-cyano-4-[(6-ethyl-2-phenylpyridin-3-yl)oxy]-N-1,2,4-thiadiazol-5-ylbenzenesulfonamide]
17 | 5.50 |  | N#Cc1cc(S(=O)(=O)Nc2ncns2)ccc1Oc1cccnc1-c1ccccc1 [Example 22, 3-cyano-4-[(2-phenylpyridin-3-yl)oxy]-N-1,2,4-thiadiazol-5-ylbenzenesulfonamide]
18 | 5.69 |  | N#Cc1cc(S(=O)(=O)Nc2ncns2)ccc1Oc1cnc(N)nc1-c1ccccc1 [Example 23, 4-[(2-amino-4-phenylpyrimidin-5-yl)oxy]-3-cyano-N-1,2,4-thiadiazol-5-ylbenzenesulfonamide]
19 | 6.35 |  | N#Cc1cc(S(=O)(=O)Nc2ncns2)ccc1Oc1ccc(F)cc1-c1ccnn1CC(F)(F)F [Example 26, 3-cyano-4-(4-fluoro-2-(1-(2,2,2-trifluoroethyl)-1H-pyrazol-5-yl)phenoxy)-N-(1,2,4-thiadiazol-5-yl)benzenesulfonamide]
20 | 6.64 |  | CCOC(=O)Cn1nccc1-c1cc(Cl)ccc1Oc1ccc(S(=O)(=O)Nc2ncns2)cc1C#N [Example 29, ethyl 2-(5-(2-(4-(N-1,2,4-thiadiazol-5-ylsulfamoyl)-2-cyanophenoxy)-5-chlorophenyl)-1H-pyrazol-1-yl)acetate]
21 | 6.52 |  | COC(=O)c1ccc(Oc2ccc(S(=O)(=O)Nc3ncns3)cc2C#N)c(-c2ccnn2C)c1 [Example 30, methyl 4-(4-(N-1,2,4-thiadiazol-5-ylsulfamoyl)-2-cyanophenoxy)-3-(1-methyl-1H-pyrazol-5-yl)benzoate]
22 | 5.47 |  | Cc1cccc(-c2cccc(OC(C)C)c2)c1Oc1ccc(S(=O)(=O)Nc2ncns2)cc1C#N [Example 32, 3-cyano-4-[(3′-isopropoxy-3-methylbiphenyl-2-yl)oxy]-N-1,2,4-thiadiazol-5-ylbenzenesulfonamide]
23 | 7.05 |  | CC(C)Oc1cccc(-c2ccccc2Oc2ccc(S(=O)(=O)Nc3ncns3)cc2C#N)c1 [Example 34, 3-cyano-4-[(3′-isopropoxybiphenyl-2-yl)oxy]-N-1,2,4-thiadiazol-5-ylbenzenesulfonamide]
24 | 4.51 |  | Cc1cccc(-c2cccc(OC(F)(F)F)c2)c1Oc1ccc(S(=O)(=O)Nc2ncns2)cc1C#N [Example 37, 3-cyano-4-{[3-methyl-3′-(trifluoromethoxy)biphenyl-2-yl]oxy}-N-1,2,4-thiadiazol-5-ylbenzenesulfonamide]
25 | 4.81 |  | Cc1cccc(-c2cccc(F)c2)c1Oc1ccc(S(=O)(=O)Nc2ncns2)cc1C#N [Example 38, 3-cyano-4-[(3′-fluoro-3-methylbiphenyl-2-yl)oxy]-N-1,2,4-thiadiazol-5-ylbenzenesulfonamide]
26 | 5.69 |  | Cc1cccc(-c2ccc(F)cc2)c1Oc1ccc(S(=O)(=O)Nc2ncns2)cc1C#N [Example 39, 3-cyano-4-[(4′-fluoro-3-methylbiphenyl-2-yl)oxy]-N-1,2,4-thiadiazol-5-ylbenzenesulfonamide]
27 | 4.96 |  | COc1ccc(-c2cccc(C)c2Oc2ccc(S(=O)(=O)Nc3ncns3)cc2C#N)cc1F [Example 41, 3-cyano-4-[(3′-fluoro-4′-methoxy-3-methylbiphenyl-2-yl)oxy]-N-1,2,4-thiadiazol-5-ylbenzenesulfonamide]

Source: patent US8541588B2, “Sulfonamide derivatives” (Pfizer Limited, priority 2009, dated 2013)
